The series deals with rodent carcinogenicity bioassays, tumor incidence. Briefly: CCRIS carcinogenicity studies. A digest of the protocol:
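NCI-built, expert-reviewed records of carcinogenicity and related test outcomes (mutagenicity, tumor promotion/inhibition) compiled from published and report sources, historical span 1985-2011, not updated.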

Active and inactive are the calls of the source. No rule for the calls is given here.

For 5 compounds, carcinogen call results are on record in PubChem BioAssay AID1259411 (Chemical Carcinogenesis Research Information System (CCRIS), 2018).

`[P]#[Ga]`: the carcinogen call (Species: MOUSE, Strain/Sex: ICR/MALE, Route: INTRAPERITONEAL, Dose: 0, 48, 480 MG/KG AS GALLIUM SUSPENDED IN OLIVE OIL ONCE (STUDY DURATION: 18 MO), Dose: 0, 48, 480 MG/KG AS GALLIUM SUSPENDED IN OLIVE OIL ONCE (STUDY DURATION: 18 MO)) is “inactive; negative” and the carcinogen call (Species: MOUSE, Strain/Sex: ICR/MALE, Route: SUBCUTANEOUS, Dose: 0, 48, 480 MG/KG AS GALLIUM SUSPENDED IN OLIVE OIL ONCE (STUDY DURATION: 18 MO), Dose: 0, 48, 480 MG/KG AS GALLIUM SUSPENDED IN OLIVE OIL ONCE (STUDY DURATION: 18 MO)) is “inactive; negative”.
For the compound `C=CCc1ccc(OC)c(OC)c1`, the carcinogen call is, setting by setting: (Species: MOUSE, Strain/Sex: B6C3F1/FEMALE, Route: GAVAGE, Dose: 0, 37, 75, 150 MG/KG BW IN 0.5% METHYLCELLULOSE 5 D/WK FOR 105 WK (STUDY DURATION: 105 WK), Dose: 0, 37, 75, 150 MG/KG BW IN 0.5% METHYLCELLULOSE 5 D/WK FOR 105 WK (STUDY DURATION: 105 WK), Tumor Site: Type of Lesion: LIVER: HEPATOCELLULAR ADENOMA, HEPATOCELLULAR CARCINOMA, HEPATOBLASTOMA) “active; positive”; (Species: MOUSE, Strain/Sex: B6C3F1/MALE, Route: GAVAGE, Dose: 0, 37, 75, 150 MG/KG BW IN 0.5% METHYLCELLULOSE 5 D/WK FOR 105 WK (STUDY DURATION: 105 WK), Dose: 0, 37, 75, 150 MG/KG BW IN 0.5% METHYLCELLULOSE 5 D/WK FOR 105 WK (STUDY DURATION: 105 WK), Tumor Site: Type of Lesion: LIVER: TUMOR) “active; positive”; (Species: RAT, Strain/Sex: F344/N/FEMALE, Route: GAVAGE, Dose: 0, 37, 75, 150 MG/KG BW IN 0.5% METHYLCELLULOSE 5D/WK FOR 105 WK (STUDY DURATION: 105 WK), Dose: 0, 37, 75, 150 MG/KG BW IN 0.5% METHYLCELLULOSE 5D/WK FOR 105 WK (STUDY DURATION: 105 WK), Tumor Site: Type of Lesion: LIVER: HEPATOCELLULAR ADENOMA OR CARCINOMA, GLANDULAR STOMACH: BENIGN OR MALIGNANT NEUROENDOCRINE TUMOR) “active; positive”; (Species: RAT, Strain/Sex: F344/N/FEMALE, Route: GAVAGE, Dose: 0, 300 MG/KG BW IN 0.5% METHYLCELLULOSE 5D/WK FOR 52 WK (STUDY DURATION: 105 WK), Tumor Site: Type of Lesion: ADRENAL MEDULLA: BENIGN PHEOCHROMOCYTOMA, LIVER: HEPATOCELLULAR ADENOMA OR CARCINOMA, HEPATOCHOLANGIOMA OR HEPATOCHOLANG) “active; positive”; (Species: RAT, Strain/Sex: F344/N/MALE, Route: GAVAGE, Dose: 0, 37, 75, 150 MG/KG BW IN 0.5% METHYLCELLULOSE 5 D/WK FOR 105 WK (STUDY DURATION: 105 WK), Dose: 0, 37, 75, 150 MG/KG BW IN 0.5% METHYLCELLULOSE 5 D/WK FOR 105 WK (STUDY DURATION: 105 WK), Tumor Site: Type of Lesion: LIVER: HEPATOCELLULAR ADENOMA OR CARCINOMA, GLANDULAR STOMACH: MALIGNANT NEUROENDOCRINE TUMOR, KIDNEY: ADENOMA, MAMMARY, Tumor Site: Type of Lesion: LIVER: HEPATOCELLULAR ADENOMA OR CARCINOMA, GLANDULAR STOMACH: MALIGNANT NEUROENDOCRINE TUMOR, KIDNEY: ADENOMA, MAMMARY) “active; positive”; (Species: RAT, Strain/Sex: F344/N/MALE, Route: GAVAGE, Dose: 0, 300 MG/KG BW IN 0.5% METHYLCELLULOSE 5 D/WK FOR 52 WK (STUDY DURATION: 105 WK), Tumor Site: Type of Lesion: KIDNEY: RENAL TUBULE ADENOMA OR CARCINOMA, LIVER: HEPATOCELLULAR ADENOMA OR CARCINOMA, HEPATOCHOLANGIOMA OR HEPATOCHOLAN) “active; positive”.
For the compound `Cc1cccc(C)c1NC1=NCCCS1`, the carcinogen call (Species: RAT, Strain/Sex: F344/MALE, Route: ORAL, Dose: 0, 1,000 PPM IN FEED FOR 52 WK (STUDY DURATION: 52 WK), Tumor Site: Type of Lesion: THYROID: ADENOMA) was “active; positive”.
Turning to `[As]`, where the note is “Species: HUMAN, Route: INHALATION, ORAL, Tumor Site: Type of Lesion: LUNG, INTEGUMENTARY SYSTEM (SKIN)”, the carcinogen call was “active; positive”.
For `Cc1ccc(Cl)cc1N`, the carcinogen call by setting is: (Species: MOUSE, Strain/Sex: B6C3F1/FEMALE, Route: ORAL, Dose: 0, 2000, 4000 PPM IN DIET, Dose: 0, 2000, 4000 PPM IN DIET, Tumor Site: Type of Lesion: BLOOD VESSELS: HEMANGIOSARCOMA, LIVER: HEPATOCELLULAR ADENOMA OR CARCINOMA) “active; positive”; (Species: MOUSE, Strain/Sex: B6C3F1/MALE, Route: ORAL, Dose: 0, 2000, 4000 PPM IN DIET, Dose: 0, 2000, 4000 PPM IN DIET, Tumor Site: Type of Lesion: BLOOD VESSELS: HEMANGIOSARCOMA, LIVER: HEPATOCELLULAR ADENOMA OR CARCINOMA) “active; positive”; (Species: RAT, Strain/Sex: F344/FEMALE, Route: ORAL, Dose: 0, 2500, 5000 PPM IN DIET, Dose: 0, 2500, 5000 PPM IN DIET) “inactive; negative”; (Species: RAT, Strain/Sex: F344/MALE, Route: ORAL, Dose: 0, 2500, 5000 PPM IN DIET, Dose: 0, 2500, 5000 PPM IN DIET) “inactive; negative”.
